In patent publication US20140371244A1, “METHOD FOR TREATING PROSTATE CANCER BY USE OF PHARMACEUTICAL COMPOSITION CONTAINING A3 ADENOSINE RECEPTOR AGONIST” (priority 2009, published 2014):

Columns and labels:
[1] = test system: iNOS (inducible nitric oxide synthase); assay: NO production inhibitory activity (iNOS assay) in LPS-stimulated RAW 264.7 cells; assay type: cell-based, mouse; details: LPS 1 μg/ml; for IC50: RAW 264.7 cells, 20 hours, read-out: IC50 of NO production inhibition
Method: A test was carried out to examine the inhibitory activity of the inhibitory activity of the inventive composition on the enzyme iNOS (inducible nitric oxide synthase) whose expression increases when inflammatory reactions and traumas exist.
Specifically, RAW 264.7 cells (5×10^5 cells/ml) were added to a 24-well plate with 10% FBS-containing DMEM medium in an amount of 1 ml per well and cultured for 24 hours. […] After 30 minutes, 1 μg/ml of LPS was added to the cells which were then cultured in a 5% CO2 incubator at 37° C. for 20 hours (test groups). As a blank, RAW cells cultured without addition of LPS and the inventive composition were used, and as a control group, RAW cells cultured with addition of only LPS were used.
100 μl of the supernatant of each well was taken and allowed to react with 90 μl of each of sulfanilamide solution and N-(1-naphtyl)-ethylenediamine solution. Then, each reaction product was measured for absorbance at 540 nm to determine the amount of nitrate or nitrite produced in the culture medium, and the results of the measurement are shown in FIG. 1.
A standard curve was potted using NaNO2 solution, and the NO production inhibitory activity of each of the samples was evaluated by calculating NaNO2 concentration in each test group relative to the control group using the following equation 1 based on the measured absorbance and comparing the calculated NaNO2 concentration with that in the group treated with LPS alone. Inhibition rate (%) was calculated as nitrate concentration using the following equation, and then the IC50 value of the composition was calculated.

LPS-induced sepsis = assay: Animal model with LPS-induced sepsis; assay type: in vivo, ICR mice; details: LPS (S. marcenes) 2 mg/kg then 10 mg/kg
Method: The effect of the inventive composition (thio-Cl-IB-MECA) in an animal model with LPS-induced sepsis was tested. S. marcenes-derived LPS used in the test is known to be strongly pathogenic compared to E. coli-derived LPS. First, LPS was administered at low dose to attenuate an immune response in animals, and after a given time, it was administered at high dose to rapidly induce sepsis and septic shock. Specifically, ICR mice (20-25 g, male) were divided into the following 5 groups, each consisting of 6 mice: a normal group not treated with any substance; a control group administered with only saline; groups administered with the inventive composition (200 and 500 μg/kg of thio-Cl-IB-MECA); and a group administered with the conventional A3 adenosine receptor agonist (500 μg/kg IB-MECA). 30 minutes administration of these drugs, a solution of 2 mg/kg LPS (S. marcenes) in saline was administered intraabdominally. After 20 hours, the drug was administered again, and 30 minutes, LPS (S. marcenes) was administered again at a dose of 10 mg/kg. The mice were observed hourly up to 6 hours after the second stimulation, and the survival rate was observed up to 7 days after the second stimulation. The effect of the inventive composition (thio-Cl-IB-MECA) was compared with the effect of the prior A3 adenosine receptor agonist (IB-MECA), and the effects of the inventive composition (thio-Cl-IB-MECA) at different doses (200 and 500 μg/kg) were compared with each other.
The change in bodyweight was measured before the start of the test, before the second administration of the drug, and 7 days after the second administration.

TNF-α = TNF-α secretion (ELISA) and mRNA expression (RT-PCR) in LPS-stimulated RAW 264.7 cells; assay type: cell-based, mouse
Method: TNF-α is a cytokine whose expression increases in cells stimulated by LPS, and it influences the expression of IL-1β and the progression of inflammatory reactions. Thus, the effect of the inventive composition on the expression of TNF-α was examined. Specifically, RAW 264.7 cells were pretreated with each of 20, 10 and 5 μM of the inventive composition (thio-Cl-IB-MECA) and treated with LPS (1 μg/ml) to induce inflammatory reactions. Then, the cells were incubated for 6 hours, after which the supernatant was taken and the amount of TNF-α secreted into the supernatant was measured using an ELISA ([…]) kit.
In addition, in order to examine whether TNF-α is expressed at the gene level, the effect of the inventive composition on the expression of TNF-α mRNA was also tested using the RT-PCR method.

HCT 116 cells = assay: RT-PCR of cell cycle regulation-related genes in HCT 116 cells; assay type: cell-based, human; details: 40 μM
Method: A test was carried out to examine whether cell cycle regulation-related genes involved in the G1 phase are expressed.
Specifically, HCT 116 cells were diluted with 10% FBS-containing medium to a density of 1×10^6 cells per 100 mm culture dish and cultured under the conditions of 37° C. and 5% CO2 for 24 hours, followed by washing twice with PBS. Thio-Cl-IB-MECA was diluted in 10% FBS-containing medium to a concentration of 40 μM, and then 10 ml of the culture medium prepared in the 100 mm culture dish was added thereto and cultured for a given time. The non-adherent cells and adherent cells in the cell medium were collected and washed twice with PBS. Then, the cells were lysed with TRI reagent (TRIzol), after which CHCl3 was added thereto and RNA was extracted from the cells and precipitated using isopropyl alcohol. The RNA precipitate was washed with 70% ethanol and dried in air, after which it was suspended in nuclease-free water. The suspension was heated at 55° C. for 10 minutes and then at 70° C. for 5 minutes, so that the RNA was present as a single chain. The total RNA was quantified with NanoDrop, after which it was diluted to a concentration of 1 μg/μl and made into cDNA using avian myeloblastosis virus (AMV) reverse transcriptase and oligo (dT)15 primers. […]

[2] = test system: prostate cancer cell line PC-3; assay: Anticancer activity in PC-3 tumor-transplanted nude mice; assay type: in vivo; details: for tumor production inhibitory activity relative to the control group: 2 mg/kg orally every day for 35 days
Method: Based on the anticancer activity of thio-Cl-IB-MECA against prostate cancer cells, proven by the in vitro test, the anticancer activity of thio-Cl-IB-MECA was measured by an animal test. The prostate cancer cell line PC-3 was transplanted subcutaneously into nude mice, and when the tumor size reached 150-200 mm^3 after 8 days, the drug thio-Cl-IB-MECA (0.02, 0.2 and 2 mg/kg), thio-IB-MECA (2 mg/kg) or IB-MECA (2 mg/kg) was administered orally every day for 35 days. The tumor size was measured at intervals of 3-5 days. The tumor volume was measured using the following equation 3.
Tumor volume=abc×π/6 [Equation 3]
wherein a represents the longer diameter of the tumor, b represents the shorter diameter of the tumor, and c represents the height of the tumor.

Structure (SMILES): CNC(=O)[C@H]1S[C@@H](n2cnc3c(NCc4cccc(I)c4)nc(Cl)nc32)[C@H](O)[C@@H]1O [thio-Cl-IB-MECA, 2-chloro-N^6-(3-iodobenzyl)-4′-thioadenosine-5′-N-methyluronamide]
- production of NO ([1]; 5, 10 and 20 μM): inhibited in a concentration-dependent manner
- IC50 [1]: 16.2 µM
- survival rate after 1 day (LPS-induced sepsis; 200 μg/kg): 71.4%
- survival rate after 1 day (LPS-induced sepsis; 500 μg/kg): 66.7%
- amount of TNF-α secreted (TNF-α; ELISA, 5, 10, 20 μM, LPS 1 μg/ml, 6 hours): concentration-dependently inhibited
- expression of TNF-α mRNA (TNF-α; RT-PCR): also inhibited
- gene expression of cyclin D1 and c-Myc (HCT 116 cells): inhibited the expression
- gene expression of p21 and p53 (HCT 116 cells): increased the expression
- tumor production inhibitory activity relative to the control group [2]: 82.6%
- tumor production as a function of dose ([2]; 0.02, 0.2 and 2 mg/kg orally every day for 35 days): inhibited tumor production in a concentration-dependent manner

Structure (SMILES): CNC(=O)[C@H]1O[C@@H](n2cnc3c(NCc4cccc(I)c4)ncnc32)[C@H](O)[C@@H]1O [IB-MECA]
- IC50 [1]: 65.7 µM
- survival rate after 1 day (LPS-induced sepsis; 500 μg/kg): 66.7%
- tumor production inhibitory activity relative to the control group [2]: about 45.9%
